Data: ChEMBL document CHEMBL3414487, “Synthesis and biological activity of salinomycin conjugates with floxuridine” (Eur J Med Chem, 2015)
Converted amounts (≈) assume the structure as drawn.

Columns and labels:
[1] = test system: Staphylococcus epidermidis; experiment: Antimicrobial activity against methicillin-resistant Staphylococcus epidermidis 470/11 after 18 hrs by two-fold serial microdilution method; format: functional; conditions: 470/11, 18 h
[2] = test system: Staphylococcus epidermidis; experiment: Antimicrobial activity against methicillin-resistant Staphylococcus epidermidis 460/11 after 18 hrs by two-fold serial microdilution method; format: functional; conditions: 460/11, 18 h
Staphylococcus aureus [3] = experiment: Antimicrobial activity against methicillin-resistant Staphylococcus aureus 586/12 after 18 hrs by two-fold serial microdilution method; format: functional; conditions: 586/12, 18 h
[4] = test system: Staphylococcus epidermidis; experiment: Antimicrobial activity against Staphylococcus epidermidis ATCC 12228 after 18 hrs by two-fold serial microdilution method; format: functional; conditions: ATCC 12228, 18 h
[5] = test system: Staphylococcus epidermidis; experiment: Antimicrobial activity against methicillin-resistant Staphylococcus epidermidis 489/11 after 18 hrs by two-fold serial microdilution method; format: functional; conditions: 489/11, 18 h
[6] = Antiproliferative activity against human SW707 cells assessed as growth inhibition after 72 hrs by SRB method; format: functional, cell-based
BALB/3T3 = experiment: Antiproliferative activity against mouse BALB/3T3 cells assessed as growth inhibition after 72 hrs by SRB method; format: cell-based; conditions: BALB/3T3, 72 h
[7] = Antiproliferative activity against human HL60 cells assessed as growth inhibition after 72 hrs by MTT assay; format: functional, cell-based; conditions: HL-60, 72 h
[8] = Antiproliferative activity against human LS180 cells assessed as growth inhibition after 72 hrs by SRB method; format: functional, cell-based
[9] = test system: Staphylococcus epidermidis; experiment: Antimicrobial activity against methicillin-resistant Staphylococcus epidermidis 459/11 after 18 hrs by two-fold serial microdilution method; format: functional; conditions: 459/11, 18 h
Staphylococcus aureus [10] = experiment: Antimicrobial activity against Staphylococcus aureus […] 4163 after 18 hrs by two-fold serial microdilution method; format: functional
[11] = Selectivity index, ratio of IC50 for mouse BALB/3T3 cells to IC50 for human SW707 cells; format: functional
LoVo [12] = experiment: Antiproliferative activity against human LoVo cells assessed as growth inhibition after 72 hrs by SRB method; format: functional, cell-based
HL-60 [13] = experiment: Resistance index, ratio of IC50 for human HL60/Vinc cells to IC50 for human HL60 cells
HT-29 [14] = experiment: Selectivity index, ratio of IC50 for mouse BALB/3T3 cells to IC50 for human HT-29 cells; format: functional
[15] = Selectivity index, ratio of IC50 for mouse BALB/3T3 cells to IC50 for human LoVo/DX cells; format: functional
Staphylococcus aureus [16] = experiment: Antimicrobial activity against methicillin-resistant Staphylococcus aureus 456/11 after 18 hrs by two-fold serial microdilution method; format: functional; conditions: 456/11, 18 h
[17] = test system: Staphylococcus epidermidis; experiment: Antimicrobial activity against methicillin-resistant Staphylococcus epidermidis 466/11 after 18 hrs by two-fold serial microdilution method; format: functional; conditions: 466/11, 18 h
[18] = Antiproliferative activity against human vincristine-resistant HL60/Vinc cells assessed as growth inhibition after 72 hrs by MTT assay; format: functional; conditions: Homo sapiens, HL60/vinc, 72 h
[19] = test system: Staphylococcus epidermidis; experiment: Antimicrobial activity against methicillin-resistant Staphylococcus epidermidis 488/11 after 18 hrs by two-fold serial microdilution method; format: functional; conditions: 488/11, 18 h
[20] = test system: Staphylococcus epidermidis; experiment: Antimicrobial activity against methicillin-resistant Staphylococcus epidermidis 468/11 after 18 hrs by two-fold serial microdilution method; format: functional; conditions: 468/11, 18 h
Staphylococcus aureus [21] = experiment: Antimicrobial activity against methicillin-resistant Staphylococcus aureus 537/12 after 18 hrs by two-fold serial microdilution method; format: functional; conditions: 537/12, 18 h
[22] = test system: Staphylococcus epidermidis; experiment: Antimicrobial activity against Staphylococcus epidermidis ATCC 35984 after 18 hrs by two-fold serial microdilution method; format: functional; conditions: ATCC 35984, 18 h
Staphylococcus aureus [23] = experiment: Antimicrobial activity against methicillin-resistant Staphylococcus aureus 452/11 after 18 hrs by two-fold serial microdilution method; format: functional; conditions: 452/11, 18 h
[24] = test system: Staphylococcus epidermidis; experiment: Antimicrobial activity against methicillin-resistant Staphylococcus epidermidis 461/11 after 18 hrs by two-fold serial microdilution method; format: functional; conditions: 461/11, 18 h
Staphylococcus aureus [25] = experiment: Antimicrobial activity against methicillin-resistant Staphylococcus aureus 514/11 after 18 hrs by two-fold serial microdilution method; format: functional; conditions: 514/11, 18 h
Staphylococcus aureus [26] = experiment: Antimicrobial activity against methicillin-resistant Staphylococcus aureus 462/11 after 18 hrs by two-fold serial microdilution method; format: functional; conditions: 462/11, 18 h
Staphylococcus aureus [27] = experiment: Antimicrobial activity against methicillin-resistant Staphylococcus aureus 585/12 after 18 hrs by two-fold serial microdilution method; format: functional; conditions: 585/12, 18 h
[28] = Antiproliferative activity against human doxorubicin-resistant LoVo/DX cells assessed as growth inhibition after 72 hrs by SRB method; format: functional, cell-based
Staphylococcus aureus [29] = experiment: Antimicrobial activity against Staphylococcus aureus ATCC 29213 after 18 hrs by two-fold serial microdilution method; format: functional; conditions: ATCC 29213, 18 h
Staphylococcus aureus [30] = experiment: Antimicrobial activity against methicillin-resistant Staphylococcus aureus 572/12 after 18 hrs by two-fold serial microdilution method; format: functional; conditions: 572/12, 18 h
Staphylococcus aureus [31] = experiment: Antimicrobial activity against methicillin-resistant Staphylococcus aureus 522/12 after 18 hrs by two-fold serial microdilution method; format: functional; conditions: 522/12, 18 h
HL-60 [32] = experiment: Selectivity index, ratio of IC50 for mouse BALB/3T3 cells to IC50 for human HL60 cells; format: functional
LoVo [33] = experiment: Resistance index, ratio of IC50 for human LoVo/DX cells to IC50 for human LoVo cells
[34] = Selectivity index, ratio of IC50 for mouse BALB/3T3 cells to IC50 for human LS180 cells; format: functional
Staphylococcus aureus [35] = experiment: Antimicrobial activity against Staphylococcus aureus ATCC 6538 after 18 hrs by two-fold serial microdilution method; format: functional; conditions: ATCC 6538, 18 h
LoVo [36] = experiment: Selectivity index, ratio of IC50 for mouse BALB/3T3 cells to IC50 for human LoVo cells; format: functional
Staphylococcus aureus [37] = experiment: Antimicrobial activity against methicillin-resistant Staphylococcus aureus 573/12 after 18 hrs by two-fold serial microdilution method; format: functional; conditions: 573/12, 18 h
[38] = Selectivity index, ratio of IC50 for mouse BALB/3T3 cells to IC50 for human HL60/Vinc cells; format: functional
HT-29 [39] = experiment: Antiproliferative activity against human HT-29 cells assessed as growth inhibition after 72 hrs by SRB method; format: functional, cell-based
[40] = test system: Staphylococcus epidermidis; experiment: Antimicrobial activity against methicillin-resistant Staphylococcus epidermidis 469/11 after 18 hrs by two-fold serial microdilution method; format: functional; conditions: 469/11, 18 h
[41] = test system: Staphylococcus epidermidis; experiment: Antimicrobial activity against methicillin-resistant Staphylococcus epidermidis 467/11 after 18 hrs by two-fold serial microdilution method; format: functional; conditions: 467/11, 18 h
Staphylococcus aureus [42] = experiment: Antimicrobial activity against Staphylococcus aureus ATCC 25923 after 18 hrs by two-fold serial microdilution method; format: functional; conditions: ATCC 25923, 18 h

## CC[C@@H](C(=O)[C@@H](C)[C@@H](O)[C@H](C)[C@@H]1O[C@@H]([C@@H](CC)C(=O)OC[C@H]2O[C@@H](n3cc(F)c(=O)[nH]c3=O)C[C@@H]2O)CC[C@@H]1C)[C@H]1O[C@]2(C=C[C@@H](O)[C@]3(CC[C@@](C)([C@H]4CC[C@](O)(CC)[C@H](C)O4)O3)O2)[C@H](C)C[C@@H]1C
[1]
  MIC: 8.17 µM (≈ 8 µg/mL)
[2]
  MIC: 32.7 µM (≈ 32 µg/mL)
Staphylococcus aureus [3]
  MIC: 8.17 µM (≈ 8 µg/mL)
[4]
  MIC: 4.09 µM (≈ 4 µg/mL)
[5]
  MIC: 8.17 µM (≈ 8 µg/mL)
[6]; Homo sapiens, SW707, 72 h
  IC50: 1990 nM
BALB/3T3
  IC50: 32300 nM
[7]
  IC50: 370 nM
[8]; Homo sapiens, LS180, 72 h
  IC50: 2250 nM
[9]
  MIC: 32.7 µM (≈ 32 µg/mL)
Staphylococcus aureus [10]
  MIC: 8.17 µM (≈ 8 µg/mL)
[11]
  Selectivity Index: 16.22
LoVo [12]; Homo sapiens, LoVo, 72 h
  IC50: 1460 nM
HL-60 [13]
  Ratio IC50: 7.62
HT-29 [14]
  Selectivity Index: 15.98
[15]
  Selectivity Index: 34.71
Staphylococcus aureus [16]
  MIC: 32.7 µM (≈ 32 µg/mL)
[17]
  MIC: 32.7 µM (≈ 32 µg/mL)
[18]
  IC50: 2820 nM
[19]
  MIC: 32.7 µM (≈ 32 µg/mL)
[20]
  MIC: 32.7 µM (≈ 32 µg/mL)
Staphylococcus aureus [21]
  MIC: 8.17 µM (≈ 8 µg/mL)
[22]
  MIC: 4.09 µM (≈ 4 µg/mL)
Staphylococcus aureus [23]
  MIC: 32.7 µM (≈ 32 µg/mL)
[24]
  MIC: 32.7 µM (≈ 32 µg/mL)
Staphylococcus aureus [25]
  MIC: 8.17 µM (≈ 8 µg/mL)
Staphylococcus aureus [26]
  MIC: 32.7 µM (≈ 32 µg/mL)
Staphylococcus aureus [27]
  MIC: 16.3 µM (≈ 16 µg/mL)
[28]
  IC50: 930 nM
Staphylococcus aureus [29]
  MIC: 4.09 µM (≈ 4 µg/mL)
Staphylococcus aureus [30]
  MIC: 8.17 µM (≈ 8 µg/mL)
Staphylococcus aureus [31]
  MIC: 8.17 µM (≈ 8 µg/mL)
HL-60 [32]
  Selectivity Index: 87.24
LoVo [33]
  Ratio IC50: 0.64
[34]
  Selectivity Index: 14.35
Staphylococcus aureus [35]
  MIC: 4.09 µM (≈ 4 µg/mL)
LoVo [36]
  Selectivity Index: 22.11
Staphylococcus aureus [37]
  MIC: 8.17 µM (≈ 8 µg/mL)
[38]
  Selectivity Index: 11.45
HT-29 [39]; Homo sapiens, HT-29, 72 h
  IC50: 2020 nM
[40]
  MIC: 32.7 µM (≈ 32 µg/mL)
[41]
  MIC: 32.7 µM (≈ 32 µg/mL)
Staphylococcus aureus [42]
  MIC: 8.17 µM (≈ 8 µg/mL)

## [N-]=[N+]=N[C@H]1C[C@H](n2cc(F)c(=O)[nH]c2=O)O[C@@H]1CO
[1]
  MIC: 0.92 µM (≈ 0.25 µg/mL)
[2]
  MIC: 0.92 µM (≈ 0.25 µg/mL)
Staphylococcus aureus [3]
  MIC: 3.69 µM (≈ 1 µg/mL)
[4]
  MIC: 1.85 µM (≈ 0.502 µg/mL)
[5]
  MIC: 3.69 µM (≈ 1 µg/mL)
[6]
  inhibition (INH): 41%
BALB/3T3
  IC50: 97300 nM
[7]
  IC50: 180000 nM
[8]
  inhibition (INH): 25%
[9]
  MIC: 0.92 µM (≈ 0.25 µg/mL)
Staphylococcus aureus [10]
  MIC: 3.69 µM (≈ 1 µg/mL)
LoVo [12]
  inhibition (INH): 43%
HL-60 [13]
  Ratio IC50: 1.63
[15]
  Selectivity Index: 0.34
Staphylococcus aureus [16]
  MIC: 3.69 µM (≈ 1 µg/mL)
[17]
  MIC: 0.46 µM (≈ 0.125 µg/mL)
[18]
  IC50: 294000 nM
[19]
  MIC: 0.92 µM (≈ 0.25 µg/mL)
[20]
  MIC: 0.92 µM (≈ 0.25 µg/mL)
Staphylococcus aureus [21]
  MIC: 7.38 µM (≈ 2 µg/mL)
[22]
  MIC: 7.38 µM (≈ 2 µg/mL)
Staphylococcus aureus [23]
  MIC: 3.69 µM (≈ 1 µg/mL)
[24]
  MIC: 1.85 µM (≈ 0.502 µg/mL)
Staphylococcus aureus [25]
  MIC: 3.69 µM (≈ 1 µg/mL)
Staphylococcus aureus [26]
  MIC: 7.38 µM (≈ 2 µg/mL)
Staphylococcus aureus [27]
  MIC: 3.69 µM (≈ 1 µg/mL)
[28]
  IC50: 290000 nM
Staphylococcus aureus [29]
  MIC: 7.38 µM (≈ 2 µg/mL)
Staphylococcus aureus [30]
  MIC: 3.69 µM (≈ 1 µg/mL)
Staphylococcus aureus [31]
  MIC: 7.38 µM (≈ 2 µg/mL)
HL-60 [32]
  Selectivity Index: 0.54
Staphylococcus aureus [35]
  MIC: 3.69 µM (≈ 1 µg/mL)
Staphylococcus aureus [37]
  MIC: 7.38 µM (≈ 2 µg/mL)
[38]
  Selectivity Index: 0.33
HT-29 [39]
  inhibition (INH): 25%
[40]
  MIC: 3.69 µM (≈ 1 µg/mL)
[41]
  MIC: 0.92 µM (≈ 0.25 µg/mL)
Staphylococcus aureus [42]
  MIC: 3.69 µM (≈ 1 µg/mL)
